Our source for the ID50 values is ChEMBL document CHEMBL1122114.

SMILES strings stand for the structures.

The target in experiment [1] is Dihydrofolate reductase (Lactobacillus casei) (UniProt P00381). The following applies: Lacticaseibacillus casei.
Description: Tested for 50% reversible inhibition of Lactobacillus casei dihydrofolate reductase (spectrophotometric assay).
Experiment [2] has the same target. The following applies: Lacticaseibacillus casei. The source holds these as a separate data set.
Description: Concentration of inhibitor required to decrease binding of [3H]MTX radioligand to Lactobacillus casei dihydrofolate reductase by 50%.
Experiment [3] has as its target T1, Dihydrofolate reductase (Mus musculus) (UniProt P00375).
T1 sequence (whole entry): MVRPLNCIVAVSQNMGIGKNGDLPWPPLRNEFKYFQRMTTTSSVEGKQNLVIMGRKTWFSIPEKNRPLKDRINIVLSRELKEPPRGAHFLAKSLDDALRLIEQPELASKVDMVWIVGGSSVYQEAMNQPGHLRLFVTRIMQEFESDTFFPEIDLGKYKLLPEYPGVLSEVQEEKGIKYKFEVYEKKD
The following applies: L1210.
Description: Concentration of inhibitor to decrease binding of [3H]MTX radioligand to Dihydrofolate reductase from L1210 cells by 50%.

Sequence of Dihydrofolate reductase (Lactobacillus casei) (P00381 whole entry): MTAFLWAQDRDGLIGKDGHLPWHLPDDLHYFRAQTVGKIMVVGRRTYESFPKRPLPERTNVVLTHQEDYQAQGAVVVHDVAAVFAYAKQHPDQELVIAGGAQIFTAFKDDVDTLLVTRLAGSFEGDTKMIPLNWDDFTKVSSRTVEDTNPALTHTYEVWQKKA

Regarding `CN(Cc1cnc2nc(N)nc(N)c2n1)c1ccc(C(=O)NC(CCCCNC(=O)CI)C(=O)O)cc1` (centres undefined), the ID50 in experiment [1] was found to be 4.5 nM; in experiment [2], 31 nM; in experiment [3], 9.8 nM.

For the compound `CN(Cc1cnc2nc(N)nc(N)c2n1)c1ccc(C(=O)NC(CCCCN)C(=O)O)cc1` (centres undefined), the ID50 amounted to 23 nM in experiment [1], 122 nM in experiment [2] and 11 nM in experiment [3].

For `CN(Cc1cnc2nc(N)nc(N)c2n1)c1ccc(C(=O)NC(CCCCNC(=O)OCc2ccccc2)C(=O)O)cc1` (centres undefined), the ID50 in experiment [1] was 14 nM; in experiment [2] it was 45 nM; in experiment [3], 11 nM.
